Assay results taken from patent US20040077580A1, “Antisense modulation of PI3K P85 Expression” (priority 2000, published 2004).
Strand notation (5' to 3'): a small letter for the sugar, then the base; units joined by * are phosphorothioate-linked, units joined directly phosphodiester-linked; [ ] holds rarer units or linkages, { } end groups; capitals alone tell only the bases. e = 2'-O-(2-methoxyethyl) (MOE); [5mC] = 5-methylcytosine; d = 2'-deoxy (DNA)

Tests used:
[1] = system: mouse PI3K p85; test: Inhibition of mouse PI3K p85 mRNA levels by antisense oligonucleotides, real-time quantitative RT-PCR; format: cell-based; set-up: concentration or dose not given beside the values; conditions: chimeric phosphorothioate 2′-MOE gapmers, averaged from two experiments
Procedure: Cells were harvested 16 hours after oligonucleotide treatment.
Target sites are indicated by nucleotide numbers, as given in the sequence source reference (Genbank accession no. U50413; SEQ ID NO: 48), to which the oligonucleotide binds.
Cytidine residues are 5-methylcytidines throughout the oligonucleotides.
Data were obtained by real-time quantitative RT-PCR as described in other examples herein and are averaged from two experiments. […] If present, “N.D.” indicates “no data”.

[2] = Serum insulin levels in ob/ob mice; format: in vivo, mouse; conditions: male ob/ob mice; 50 mg/kg intraperitoneal once a week for two weeks
Text: Treatment was continued for two weeks with serum insulin levels being measured on day 14.

[3] = system: PI3K p85 mRNA; test: PI3K p85 mRNA expression in liver and fat of treated mice; format: in vivo, mouse
Procedure: Ob/ob mice are used as a model of obesity. The ob/ob phenotype is due to a mutation in the leptin gene on a C57BL/6J-Lep(ob) background.
In accordance with the present invention, the effects of ISIS 131410 (SEQ ID NO: 56) on PI3K p85 mRNA expression was investigated in the ob/ob mouse model of obesity.
Mice were treated at a dose of 25 mg/kg of ISIS 141925 or 25 mg/kg of ISIS 131410.
Treatment was continued for two weeks after which the mice were sacrificed and tissues collected for mRNA analysis. RNA values were normalized and are expressed as a percentage of saline treated control.
Lean littermates (ob/wt) were also examined for mRNA reduction of PI3K p85 in the liver at doses of 25 and 50 mg/kg of ISIS 131410 or saline treatment. In these animals, at both doses, the level of expression was reduced only minimally to 80% of control.

[4] = for Blood glucose level at day 14: 25 or 50 mg/kg intraperitoneal once a week
[5] = system: PI3K p85 splice variants; test: Expression of PI3K p85 splice variants in liver, immunoprecipitation with p110 and Western blot with p85pan antibody; format: in vivo, mouse; conditions: livers of both ob/ob and wild-type mice
Text: ISIS 131410 is one of several antisense oligonucleotides of the present invention that hybridize to the longer p85α splice variant and not to the p55α or the p50α splice variant. Studies were therefore designed to study the effects of this antisense oligonucleotide on expression product of PI3K p85α splice variant.

[6] = male ob/ob mice, 25 mg/kg intraperitoneal once a week for two weeks, percentage of saline treated control
[7] = ob/ob mice, starting level 250 mg/dL at day 1

Substance	% Inhib. of mouse PI3K p85 mRNA levels [1]	also measured
131412 (antisense e[5mC]*eT*eT*eG*e[5mC]*dT*dG*d[5mC]*dT*d[5mC]*d[5mC]*dG*dT*dG*dT*e[5mC]*eA*eG*e[5mC]*eT) [compound 131412]	85%	–
GCCACCGCCTATGTCTTCTC (listed as DNA, chemistry not given here) [ISIS 141925, reference compound]	–	Serum insulin level at day 14 [2]: 28 ng/mL; PI3K p85 mRNA level in fat [3, 6]: no reduction; PI3K p85 mRNA level in liver [3, 6]: no reduction; Blood glucose level at day 14 [4, 7]: 240 mg/dL
tcggcgagatagcgtttgaa (eT*e[5mC]*eG*eG*e[5mC]*dG*dA*dG*dA*dT*dA*dG*d[5mC]*dG*dT*eT*eT*eG*eA*eA; antisense) [ISIS 131414]	at least 60%	–
cttgctgctccgtgtcagct (e[5mC]*eT*eT*eG*e[5mC]*dT*dG*d[5mC]*dT*d[5mC]*d[5mC]*dG*dT*dG*dT*e[5mC]*eA*eG*e[5mC]*eT; antisense) [ISIS 131412]	at least 60%	–
131421 (antisense eG*e[5mC]*eT*e[5mC]*e[5mC]*d[5mC]*dG*dA*d[5mC]*dA*dT*dT*d[5mC]*d[5mC]*dA*e[5mC]*eG*eT*e[5mC]*eT) [compound 131421]	65%	–
131407 (antisense e[5mC]*eG*e[5mC]*eT*e[5mC]*d[5mC]*dA*d[5mC]*dT*d[5mC]*dT*d[5mC]*dA*dG*d[5mC]*eT*eT*e[5mC]*eA*e[5mC]) [compound 131407]	85%	–
gcatcaatgttctctcaaag (eG*e[5mC]*eA*eT*e[5mC]*dA*dA*dT*dG*dT*dT*d[5mC]*dT*d[5mC]*dT*e[5mC]*eA*eA*eA*eG; antisense) [ISIS 131426]	at least 60%	–
131413 (antisense eT*e[5mC]*eT*e[5mC]*e[5mC]*dA*dA*dG*dT*d[5mC]*d[5mC]*dA*d[5mC]*dT*dG*eA*e[5mC]*eG*e[5mC]*eG) [compound 131413]	56%	–
131422 (antisense e[5mC]*e[5mC]*eA*eT*eA*dG*d[5mC]*d[5mC]*dG*dG*dT*dG*dG*d[5mC]*dA*eG*eT*e[5mC]*eT*eT) [compound 131422]	40%	–
ggtgtaagagtgtaatcgcc (eG*eG*eT*eG*eT*dA*dA*dG*dA*dG*dT*dG*dT*dA*dA*eT*e[5mC]*eG*e[5mC]*e[5mC]; antisense) [ISIS 131417]	at least 60%	–
131410 (antisense e[5mC]*e[5mC]*eT*eG*eG*d[5mC]*d[5mC]*dA*dT*d[5mC]*dA*d[5mC]*dT*dG*dA*eA*eT*e[5mC]*e[5mC]*eA) [compound 131410]	95%	–
131418 (antisense e[5mC]*e[5mC]*eT*eG*e[5mC]*dT*dG*dG*dT*dA*dT*dT*dT*dG*dG*eA*e[5mC]*eA*e[5mC]*eT) [compound 131418]	50%	–
131409 (antisense eG*e[5mC]*eA*e[5mC]*eT*d[5mC]*dA*dT*dG*dT*d[5mC]*dT*dG*d[5mC]*dA*eG*e[5mC]*eT*e[5mC]*eT) [compound 131409]	85%	–
131411 (antisense e[5mC]*e[5mC]*eA*eG*eT*dG*dG*dT*dT*dT*d[5mC]*dA*dT*dT*dG*eT*eA*eG*e[5mC]*e[5mC]) [compound 131411]	90%	–
131414 (antisense eT*e[5mC]*eG*eG*e[5mC]*dG*dA*dG*dA*dT*dA*dG*d[5mC]*dG*dT*eT*eT*eG*eA*eA) [compound 131414]	73%	–
atactgaagcgtaagccaac (eA*eT*eA*e[5mC]*eT*dG*dA*dA*dG*d[5mC]*dG*dT*dA*dA*dG*e[5mC]*e[5mC]*eA*eA*e[5mC]; antisense) [ISIS 131415]	at least 60%	–
cgatctctcggtactcagct (e[5mC]*eG*eA*eT*e[5mC]*dT*d[5mC]*dT*d[5mC]*dG*dG*dT*dA*d[5mC]*dT*e[5mC]*eA*eG*e[5mC]*eT; antisense) [ISIS 131420]	at least 60%	–

Substance	% Inhib. of mouse PI3K p85 mRNA levels [1]	also measured
131416 (antisense eT*eG*e[5mC]*eT*eG*dG*dT*dG*d[5mC]*dT*dG*dG*d[5mC]*dT*dG*eT*e[5mC]*eT*e[5mC]*eT) [compound 131416]	68%	–
131408 (antisense e[5mC]*e[5mC]*eA*eT*e[5mC]*dT*dG*dT*d[5mC]*d[5mC]*dT*d[5mC]*d[5mC]*dA*dT*e[5mC]*eA*eA*e[5mC]*eG) [compound 131408]	88%	–
131415 (antisense eA*eT*eA*e[5mC]*eT*dG*dA*dA*dG*d[5mC]*dG*dT*dA*dA*dG*e[5mC]*e[5mC]*eA*eA*e[5mC]) [compound 131415]	75%	–
131426 (antisense eG*e[5mC]*eA*eT*e[5mC]*dA*dA*dT*dG*dT*dT*d[5mC]*dT*d[5mC]*dT*e[5mC]*eA*eA*eA*eG) [compound 131426]	75%	–
131417 (antisense eG*eG*eT*eG*eT*dA*dA*dG*dA*dG*dT*dG*dT*dA*dA*eT*e[5mC]*eG*e[5mC]*e[5mC]) [compound 131417]	78%	–
tgctggtgctggctgtctct (eT*eG*e[5mC]*eT*eG*dG*dT*dG*d[5mC]*dT*dG*dG*d[5mC]*dT*dG*eT*e[5mC]*eT*e[5mC]*eT; antisense) [ISIS 131416]	at least 60%	–
gcactcatgtctgcagctct (eG*e[5mC]*eA*e[5mC]*eT*d[5mC]*dA*dT*dG*dT*d[5mC]*dT*dG*d[5mC]*dA*eG*e[5mC]*eT*e[5mC]*eT; antisense) [ISIS 131409]	at least 60%	–
131406 (antisense e[5mC]*eG*e[5mC]*eT*eG*d[5mC]*dT*dT*d[5mC]*d[5mC]*dT*d[5mC]*d[5mC]*dA*dA*e[5mC]*eT*e[5mC]*eG*eG) [compound 131406]	56%	–
ccagtggtttcattgtagcc (e[5mC]*e[5mC]*eA*eG*eT*dG*dG*dT*dT*dT*d[5mC]*dA*dT*dT*dG*eT*eA*eG*e[5mC]*e[5mC]; antisense) [ISIS 131411]	at least 60%	–
cgctccactctcagcttcac (e[5mC]*eG*e[5mC]*eT*e[5mC]*d[5mC]*dA*d[5mC]*dT*d[5mC]*dT*d[5mC]*dA*dG*d[5mC]*eT*eT*e[5mC]*eA*e[5mC]; antisense) [ISIS 131407]	at least 60%	–
131423 (antisense eT*eT*eT*eG*e[5mC]*dT*dT*d[5mC]*dT*d[5mC]*dA*dG*dA*dG*dG*e[5mC]*e[5mC]*eT*eT*eG) [compound 131423]	40%	–
cctggccatcactgaatcca (CCTGGCCATCACTGAATCCA; chemistry not given here) [ISIS 131410]	at least 60%	Species of PI3K p85 splice variant present in liver [5]: alters the species of PI3K p85 variant present in favor of the p50α variant; Serum insulin level at day 14 [2]: 5 ng/mL; PI3K p85 mRNA level in liver ([3]; lean littermates (ob/wt), at both doses, 25 and 50 mg/kg): 80 % of control; PI3K p85 mRNA level in fat [3, 6]: 55 % of control; PI3K p85 mRNA level in liver [3, 6]: 52 % of control; Hypoglycemia as a result of oligonucleotide treatment ([4]; mouse, in vivo): no hypoglycemia induced; Blood glucose level at day 14 [4, 7]: 150 mg/dL; Blood glucose level at day 7 ([4]; ob/ob mice, all doses (25 or 50 mg/kg) intraperitoneal once a week, starting level 250 mg/dL at day 1): 180 mg/dL; Blood glucose level, constant throughout the study (average) ([4]; wild-type mice, all treatment groups (25 or 50 mg/kg), two weeks): 150 mg/dL
131419 (antisense eG*e[5mC]*eT*e[5mC]*e[5mC]*dT*dG*dG*dG*dT*dT*dT*dG*dG*d[5mC]*eA*eT*eT*eG*eT) [compound 131419]	45%	–
ccatctgtcctccatcaacg (e[5mC]*e[5mC]*eA*eT*e[5mC]*dT*dG*dT*d[5mC]*d[5mC]*dT*d[5mC]*d[5mC]*dA*dT*e[5mC]*eA*eA*e[5mC]*eG; antisense) [ISIS 131408]	at least 60%	–
131420 (antisense e[5mC]*eG*eA*eT*e[5mC]*dT*d[5mC]*dT*d[5mC]*dG*dG*dT*dA*d[5mC]*dT*e[5mC]*eA*eG*e[5mC]*eT) [compound 131420]	79%	–
gctcccgacattccacgtct (eG*e[5mC]*eT*e[5mC]*e[5mC]*d[5mC]*dG*dA*d[5mC]*dA*dT*dT*d[5mC]*d[5mC]*dA*e[5mC]*eG*eT*e[5mC]*eT; antisense) [ISIS 131421]	at least 60%	–
